The source of these data is article PMC11325555, “Interaction of Bisphenol A and Its Analogs with Estrogen and Androgen Receptor from Atlantic Cod (Gadus morhua)” (Environmental Science & Technology, 2024).

Each structure is given as a SMILES string.

Data set [1] has as its target T1, Atlantic cod estrogen receptor alpha (gmEra) LBD (Gadus morhua, UniProt U5ILH7).
T1 sequence (U5ILH7 170-455): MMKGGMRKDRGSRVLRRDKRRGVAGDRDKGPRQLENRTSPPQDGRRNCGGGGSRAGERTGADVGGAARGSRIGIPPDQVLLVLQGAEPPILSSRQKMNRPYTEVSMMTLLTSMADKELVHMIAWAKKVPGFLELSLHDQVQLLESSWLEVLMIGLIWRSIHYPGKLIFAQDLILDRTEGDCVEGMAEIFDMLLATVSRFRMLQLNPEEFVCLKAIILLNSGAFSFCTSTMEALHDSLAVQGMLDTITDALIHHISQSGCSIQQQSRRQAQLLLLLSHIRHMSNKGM
Description: Luciferase reporter gene assay, gmEra antagonism (antiestrogenic activity), coexposure with 3 nM EE2. Type of data set: cell-based. As to conditions: coexposure with EE2 (3 nM, EC20). As to the method: (§1) Ligand activation of gmEra and gmAra was studied with a luciferase reporter gene assay in COS-7 cells transiently transfected with the pCMX-GAL4(DBD)-gmEra(LBD) or pCMX-GAL4(DBD)-gmAra(LBD) plasmid by using the TransIT-LT1 reagent (TransIT-LT1 Transfection Reagent, Mirus). Cells were seeded into 96-well plates (5000 cells/well) and incubated for 24 h before cotransfection with the plasmid mixture (100 ng/well). The plasmid mixture contained GAL4-UAS luciferase reporter plasmid (tk-(MH100)x4 luc), the pCMX-GAL4(DBD)-gmEra(LBD) or pCMX-GAL4(DBD)-gmAra(LBD) receptor plasmids (2:1 reporter:receptor plasmid mass ratio), and a plasmid constitutively producing the β-galactosidase enzyme used for normalization of transfection efficiency (pCMV- β-Gal). […] The maximum DMSO/methanol concentrations in the exposure wells were 0.5% (v/v) in DMEM medium without phenol red (Sigma-Aldrich). After exposure, cells were lysed, and luciferase and beta-galactosidase activities were measured as luminescence and absorbance (420 nm) after the addition of luciferin and ONPG substrates, respectively, using an Enspire Multimode plate reader (PerkinElmer, Waltham, Massachusetts, USA).
To investigate potential antiestrogenic effects, COS-7 cells transiently expressing gmEra LBD were exposed to the 12 bisphenols in binary mixtures with a fixed concentration of EE2 (3 nM, corresponding to EC20) (Figure 2 and Table 1).
The dose–response curves were created using nonlinear regression and the four-parameter logistic fit in Graphpad Prism v.9. *p < 0.05 versus solvent control by ANOVA and Dunnett’s multiple comparison post hoc test.

Data set [2] deals with T2, Atlantic cod androgen receptor alpha (gmAra) LBD (Gadus morhua, UniProt D5FIC7).
T2 sequence (D5FIC7 409-718): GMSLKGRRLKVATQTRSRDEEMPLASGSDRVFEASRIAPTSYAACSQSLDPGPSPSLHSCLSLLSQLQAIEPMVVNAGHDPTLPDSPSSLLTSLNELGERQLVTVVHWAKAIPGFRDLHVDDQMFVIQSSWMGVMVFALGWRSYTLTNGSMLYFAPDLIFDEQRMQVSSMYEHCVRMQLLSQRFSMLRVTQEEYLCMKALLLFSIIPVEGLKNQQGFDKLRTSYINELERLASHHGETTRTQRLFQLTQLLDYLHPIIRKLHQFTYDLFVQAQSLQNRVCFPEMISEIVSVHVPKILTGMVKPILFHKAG
Description: Luciferase reporter gene assay, gmAra agonism (androgenic activity) in transfected COS-7 cells. As to conditions: COS-7, monkey, 24 h, read-out: gmAra Emax. As to the method:
as §1
Figure 3 Androgenic activity of bisphenols. COS-7 cells were transiently transfected with gmAra LBD and exposed individually to 12 bisphenol analogs at increasing concentrations. […] The dose–response curves were created using nonlinear regression and the four-parameter logistic fit in Graphpad Prism v.9. For comparison, the dose–response curve of BPA (black line) is indicated together with each individual BP tested (red line). *p < 0.05 versus solvent control by one-way ANOVA and Dunnett’s multiple comparison post hoc test.
(In general: In a reporter assay the amount or activity of a reporter protein is the signal.)

A further data set concerns COS-7 cells. The data set can be described thus: Cytotoxicity toward COS-7 cells (resazurin and CFDA-AM assays). As to conditions: antiandrogenic reporter assay conditions (with testosterone); highest concentration used; 24 h. The text has this:
The cytotoxicity of the test compounds toward COS-7 cells was monitored by measuring the metabolic activity and membrane integrity through the conversion of resazurin and 5-carboxyfluorescein diacetate acetoxymethyl ester (CFDA-AM), respectively, as described previously by Pérez-Albaladejo et al.[54] […]
used as a negative control.
Figure S2. Assessing metabolic activity (resazurin) and cell membrane integrity (CFDA-AM) in COS-7 cells after BP exposures. COS-7 cells were exposed to three concentrations of each BP, as well as three concentrations […]
exposed at 37 °C and 5 % CO2 for 24 hours. Cytotoxicity is indicated by a reduction in the fluorescent signal (denoted as % Cell survival) relative to the solvent control (DMSO, dotted line) adjusted to 100 %. A reduction in cell viability exceeding 20 % is generally regarded as cytotoxic (indicated with a red dotted line) (ISO, I. 2009.
10993–5: 2009 Biological evaluation of medical devices—part 5: tests for in vitro cytotoxicity. International Organization for Standardization, Geneva.).
(1 picture or pasted object on this page, not shown here)

Data set [3] concerns Atlantic cod precision-cut liver slices (PCLS). The data set can be described thus: PCLS viability, lactate dehydrogenase (LDH) assay. In kind it is cell-based, Atlantic cod (Gadus morhua). As to conditions: 1µM; 96 h exposure. As to the method: To monitor the viability of the liver tissue, the release of LDH to the medium was quantified with an LDH Cytotoxicity Detection kit (Roche, Basel, Switzerland) according to the manufacturer’s protocol. Briefly, 50 μL of PCLS medium collected at the end of 96 h exposure was pipetted in triplicates into a clear 96-well plate, 50 μL of provided reagent mixture with the substrate was added, and the mixture was incubated for 10 min at room temperature in the dark. Absorbance was measured at 490 nm using an EnSpire plate reader (PerkinElmer, Waltham, USA), with 650 nm reference measurement. The LDH activity was normalized to the liver tissue weight, and statistical analysis was performed as described above for the ELISA data.
Figure S3. Assessment of PCLS tissue viability in BP-treated and DMSO control groups. Data points represent mean ± SD of fold-changes (normalized to DMSO) in LDH activity (in the culture medium) per mg of tissue (n = 5-6). For each compound, increasing concentrations used are arranged bottom up vertically (y-axis), […]
starting with DMSO control. […]
in comparisons between the different concentrations and the corresponding DMSO control. One treatment group […]
Figure S4. Sequence alignment of ligand binding domain of gmEra and hsERa. Alignment was constructed in Jalview using Clustal with default settings. […]

In the case of `CC(C)(c1ccc(OCC2CO2)cc1)c1ccc(OCC2CO2)cc1` (centres unmarked) [BADGE], the “antiestrogenic effect on gmEra, result in words” value in data set [1] is “no antiestrogenic effects”. The maximal fold induction in data set [2] worked out at 1. Besides, the “cytotoxic concentration in COS-7 cells” value in the data set with COS-7 cells was determined as 50 µM.
Consider `Oc1ccc(C2(c3ccc(O)cc3)c3ccccc3-c3ccccc32)cc1` [BPFL], for which the maximal fold induction in data set [2] came out at 1.3. The “LDH activity in PCLS culture medium vs DMSO control, result in words” value in data set [3] is “significantly lower LDH activity”.
